According to ChEMBL document CHEMBL1201862, “PubChem BioAssay data set” (2004):
Active and inactive are the calls of the source.

Tests used:
Cannabinoid receptor 2 [1] = target: T1, Cannabinoid receptor 2 (Homo sapiens, UniProt P34972); assay: SAR analysis of agonists of the Cannabinoid Receptor 2 using an Image-Based Assay. [Related pubchem assays (depositor defined):AID2013, AID2026]; type: functional
[2] = target: T2, G-protein coupled receptor 35 (Homo sapiens, UniProt Q9HC97); assay: SAR analysis of Antagonists of the GPR35 Receptor using an Image-Based Assay - Set 3. [Related pubchem assays (depositor defined):AID2013, AID2026]; type: functional
T2 sequence (Q9HC97 whole entry): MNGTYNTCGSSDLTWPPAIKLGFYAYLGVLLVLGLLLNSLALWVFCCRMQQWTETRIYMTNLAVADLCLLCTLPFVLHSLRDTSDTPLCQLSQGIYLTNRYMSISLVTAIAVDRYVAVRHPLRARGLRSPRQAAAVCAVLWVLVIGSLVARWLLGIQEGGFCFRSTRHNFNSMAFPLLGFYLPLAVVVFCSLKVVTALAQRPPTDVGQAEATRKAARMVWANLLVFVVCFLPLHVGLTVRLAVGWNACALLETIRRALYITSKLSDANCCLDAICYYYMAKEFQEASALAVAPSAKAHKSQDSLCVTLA

Cannabinoid receptor 1 [3] = target: T3, Cannabinoid receptor 1 (Homo sapiens, UniProt P21554); assay: SAR analysis of antagonists of the Cannabinoid Receptor 1 using an Image-Based Assay - Set 2. [Related pubchem assays (depositor defined):AID2013, AID2026]; type: functional
T3 sequence (P21554 whole entry): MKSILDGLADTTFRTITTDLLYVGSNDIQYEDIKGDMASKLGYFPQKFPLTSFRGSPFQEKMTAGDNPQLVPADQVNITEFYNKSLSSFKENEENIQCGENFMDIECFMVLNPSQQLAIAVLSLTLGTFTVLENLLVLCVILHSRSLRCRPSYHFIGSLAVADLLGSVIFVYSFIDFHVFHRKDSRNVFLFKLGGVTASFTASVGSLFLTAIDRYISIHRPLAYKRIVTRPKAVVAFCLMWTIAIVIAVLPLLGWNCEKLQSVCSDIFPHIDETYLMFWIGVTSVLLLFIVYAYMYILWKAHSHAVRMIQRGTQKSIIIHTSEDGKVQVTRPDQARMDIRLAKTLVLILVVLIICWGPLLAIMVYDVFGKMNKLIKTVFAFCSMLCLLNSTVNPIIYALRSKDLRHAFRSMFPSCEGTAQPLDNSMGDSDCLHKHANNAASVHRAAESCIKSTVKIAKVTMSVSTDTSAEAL

[4] = target: T4, G-protein coupled receptor 55 (Homo sapiens, UniProt Q9Y2T6); assay: blockade of LPI-induced GPR55 arrestin translocation – imaging, U2OS, beta-arrestin-GFP, LPI agonist, set 2, SAR follow-up (AID 2820); type: functional
T4 sequence (Q9Y2T6 whole entry): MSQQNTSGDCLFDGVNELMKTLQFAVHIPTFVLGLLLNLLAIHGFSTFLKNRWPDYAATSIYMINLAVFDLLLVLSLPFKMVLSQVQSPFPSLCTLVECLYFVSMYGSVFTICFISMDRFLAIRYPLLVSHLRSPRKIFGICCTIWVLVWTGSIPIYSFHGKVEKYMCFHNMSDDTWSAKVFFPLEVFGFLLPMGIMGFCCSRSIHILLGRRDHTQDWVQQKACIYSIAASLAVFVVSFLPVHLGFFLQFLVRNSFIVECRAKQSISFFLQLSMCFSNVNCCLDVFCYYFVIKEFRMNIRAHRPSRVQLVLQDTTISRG

[5] = target: T2, G-protein coupled receptor 35; assay: SAR analysis of Agonists of the GPR35 Receptor using an Image-Based Assay - Set 2. [Related pubchem assays (depositor defined):AID2013, AID2026]; type: functional
[6] = target: T4, G-protein coupled receptor 55; assay: inhibition of LPI-stimulated GPR55 beta-arrestin translocation – imaging, U2OS, beta-arrestin-GFP, LPI agonist, primary screen (AID 2013); type: functional;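 also: antagonist potency measured as reduced agonist-driven arrestin aggregation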
Cannabinoid receptor 1 [7] = target: T3, Cannabinoid receptor 1; assay: SAR analysis of agonists of the Cannabinoid Receptor 1 using an Image-Based Assay - Set 2. [Related pubchem assays (depositor defined):AID2013, AID2026]; type: functional
Cannabinoid receptor 2 [8] = target: T1, Cannabinoid receptor 2; assay: SAR analysis of antagonists of the Cannabinoid Receptor 2 using an Image-Based Assay. [Related pubchem assays (depositor defined):AID2013, AID2026]; type: functional
[9] = target: Nucleotide-binding oligomerization domain-containing protein 2 (Homo sapiens, UniProt Q9HC29); assay: inhibition of MDP-driven NOD2 NF-kB reporter – cell-based, set 3, SAR follow-up (AID 2799); type: functional
Sequence of Nucleotide-binding oligomerization domain-containing protein 2 (Q9HC29 whole entry, the tested form may be a part): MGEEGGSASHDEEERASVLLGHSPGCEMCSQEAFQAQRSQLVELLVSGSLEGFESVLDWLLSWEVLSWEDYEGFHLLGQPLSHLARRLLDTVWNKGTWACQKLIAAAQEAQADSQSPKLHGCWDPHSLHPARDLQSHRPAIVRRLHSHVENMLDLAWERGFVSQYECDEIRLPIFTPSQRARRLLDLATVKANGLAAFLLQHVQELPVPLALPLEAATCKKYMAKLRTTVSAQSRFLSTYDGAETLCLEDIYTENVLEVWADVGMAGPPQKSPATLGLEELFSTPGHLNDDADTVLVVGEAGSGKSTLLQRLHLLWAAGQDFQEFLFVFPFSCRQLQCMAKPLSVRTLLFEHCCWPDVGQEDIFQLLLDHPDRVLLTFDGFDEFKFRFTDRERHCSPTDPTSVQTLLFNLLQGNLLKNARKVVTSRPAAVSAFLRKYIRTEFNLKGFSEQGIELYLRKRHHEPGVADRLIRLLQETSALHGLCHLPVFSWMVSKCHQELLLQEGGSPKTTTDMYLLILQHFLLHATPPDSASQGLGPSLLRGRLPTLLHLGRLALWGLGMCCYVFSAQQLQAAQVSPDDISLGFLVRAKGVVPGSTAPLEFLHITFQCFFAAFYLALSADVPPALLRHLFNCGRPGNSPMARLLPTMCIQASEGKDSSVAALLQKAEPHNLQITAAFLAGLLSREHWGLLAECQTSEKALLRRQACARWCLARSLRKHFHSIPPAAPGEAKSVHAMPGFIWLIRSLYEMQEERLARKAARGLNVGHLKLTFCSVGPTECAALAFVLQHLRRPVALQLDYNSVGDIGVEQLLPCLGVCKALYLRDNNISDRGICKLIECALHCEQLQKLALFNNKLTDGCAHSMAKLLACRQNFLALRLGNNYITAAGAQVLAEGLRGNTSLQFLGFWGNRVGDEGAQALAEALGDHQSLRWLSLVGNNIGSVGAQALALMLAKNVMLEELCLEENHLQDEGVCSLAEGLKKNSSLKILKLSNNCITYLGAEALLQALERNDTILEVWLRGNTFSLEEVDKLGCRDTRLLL

Tumor necrosis factor = Tumor necrosis factor (Homo sapiens, UniProt P01375); assay: analog potency on TNFa NF-kB signaling – cell-based, set 3, SAR follow-up (AID 2801); type: functional
Sequence of Tumor necrosis factor (P01375 whole entry): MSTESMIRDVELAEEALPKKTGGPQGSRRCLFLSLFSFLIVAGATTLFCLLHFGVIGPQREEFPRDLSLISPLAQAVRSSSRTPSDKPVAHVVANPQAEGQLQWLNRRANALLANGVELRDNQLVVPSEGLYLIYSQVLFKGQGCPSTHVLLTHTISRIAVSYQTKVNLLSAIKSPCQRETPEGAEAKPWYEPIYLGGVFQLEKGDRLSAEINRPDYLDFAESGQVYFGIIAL

HEK293 = assay: SAR analysis of compounds that are cytotoxic to HEK293 - Set 3. [Related pubchem assays (depositor defined):AID1575, AID1578, AID1848, AID1849, AID2001, AID2333, AID2334, AID2335, AID2337, AID2469]; type: functional, cell-based; details: Homo sapiens
[10] = target: T5, Nucleotide-binding oligomerization domain-containing protein 1 (Homo sapiens, UniProt Q9Y239); assay: SAR analysis of compounds that inhibit NOD1 - Set 3. [Related pubchem assays (depositor defined):AID1566, AID1575, AID1578, AID1849, AID1852, AID2333, AID2335, AID2466]; type: functional
T5 sequence (Q9Y239 whole entry): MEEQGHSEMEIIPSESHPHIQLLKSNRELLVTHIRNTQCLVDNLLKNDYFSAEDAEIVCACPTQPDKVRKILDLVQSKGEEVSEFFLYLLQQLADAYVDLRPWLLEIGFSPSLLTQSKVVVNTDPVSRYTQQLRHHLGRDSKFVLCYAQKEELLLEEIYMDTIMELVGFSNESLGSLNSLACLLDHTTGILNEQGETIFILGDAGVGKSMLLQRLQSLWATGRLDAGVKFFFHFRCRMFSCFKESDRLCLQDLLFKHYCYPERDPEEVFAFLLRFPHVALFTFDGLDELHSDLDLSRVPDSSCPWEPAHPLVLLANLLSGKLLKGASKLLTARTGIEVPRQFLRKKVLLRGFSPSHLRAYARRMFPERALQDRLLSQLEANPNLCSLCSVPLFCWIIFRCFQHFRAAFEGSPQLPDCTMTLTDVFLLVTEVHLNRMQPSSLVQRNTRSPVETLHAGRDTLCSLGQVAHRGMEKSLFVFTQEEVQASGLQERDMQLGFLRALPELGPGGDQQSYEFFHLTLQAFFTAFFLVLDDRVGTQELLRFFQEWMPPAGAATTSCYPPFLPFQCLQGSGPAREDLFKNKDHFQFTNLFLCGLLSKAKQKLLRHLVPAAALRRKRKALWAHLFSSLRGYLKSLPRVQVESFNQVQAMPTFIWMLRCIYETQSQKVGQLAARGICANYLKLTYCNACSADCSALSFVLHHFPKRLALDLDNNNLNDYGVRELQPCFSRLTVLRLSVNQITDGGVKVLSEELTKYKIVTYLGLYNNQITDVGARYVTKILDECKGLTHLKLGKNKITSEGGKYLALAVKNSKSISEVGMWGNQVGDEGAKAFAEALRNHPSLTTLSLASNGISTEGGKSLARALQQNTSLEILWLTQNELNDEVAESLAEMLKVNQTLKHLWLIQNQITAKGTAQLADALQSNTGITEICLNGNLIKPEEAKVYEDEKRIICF

[11] = target: Intestinal-type alkaline phosphatase (Homo sapiens, UniProt P09923); assay: activation of human intestinal alkaline phosphatase – biochemical, dose response (AID 488873); type: functional
Sequence of Intestinal-type alkaline phosphatase (Homo sapiens, UniProt P09923) (P09923 whole entry): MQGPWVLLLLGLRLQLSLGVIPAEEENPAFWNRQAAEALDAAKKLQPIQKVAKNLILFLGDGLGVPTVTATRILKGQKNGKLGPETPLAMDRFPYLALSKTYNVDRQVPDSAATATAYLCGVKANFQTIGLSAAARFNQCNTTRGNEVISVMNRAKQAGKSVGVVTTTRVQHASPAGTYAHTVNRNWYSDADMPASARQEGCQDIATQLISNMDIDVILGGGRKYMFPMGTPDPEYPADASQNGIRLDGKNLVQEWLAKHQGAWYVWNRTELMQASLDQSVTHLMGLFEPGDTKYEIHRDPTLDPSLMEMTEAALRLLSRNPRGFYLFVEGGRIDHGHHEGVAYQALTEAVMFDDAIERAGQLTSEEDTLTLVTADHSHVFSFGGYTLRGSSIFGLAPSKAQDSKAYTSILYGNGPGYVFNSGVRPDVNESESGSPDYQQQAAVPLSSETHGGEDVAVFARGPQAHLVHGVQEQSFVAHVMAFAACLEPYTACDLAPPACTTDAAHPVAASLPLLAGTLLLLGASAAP

[12] = target: T6, Rac GTPase-activating protein 1 (Homo sapiens, UniProt Q9H0H5); assay: blockers of MgcRacGAP-driven Rac1 GTP hydrolysis – biochemical, ADP Hunter fluorescence, primary and confirmatory, confirmation (AID 624330); type: functional
T6 sequence (Q9H0H5 whole entry): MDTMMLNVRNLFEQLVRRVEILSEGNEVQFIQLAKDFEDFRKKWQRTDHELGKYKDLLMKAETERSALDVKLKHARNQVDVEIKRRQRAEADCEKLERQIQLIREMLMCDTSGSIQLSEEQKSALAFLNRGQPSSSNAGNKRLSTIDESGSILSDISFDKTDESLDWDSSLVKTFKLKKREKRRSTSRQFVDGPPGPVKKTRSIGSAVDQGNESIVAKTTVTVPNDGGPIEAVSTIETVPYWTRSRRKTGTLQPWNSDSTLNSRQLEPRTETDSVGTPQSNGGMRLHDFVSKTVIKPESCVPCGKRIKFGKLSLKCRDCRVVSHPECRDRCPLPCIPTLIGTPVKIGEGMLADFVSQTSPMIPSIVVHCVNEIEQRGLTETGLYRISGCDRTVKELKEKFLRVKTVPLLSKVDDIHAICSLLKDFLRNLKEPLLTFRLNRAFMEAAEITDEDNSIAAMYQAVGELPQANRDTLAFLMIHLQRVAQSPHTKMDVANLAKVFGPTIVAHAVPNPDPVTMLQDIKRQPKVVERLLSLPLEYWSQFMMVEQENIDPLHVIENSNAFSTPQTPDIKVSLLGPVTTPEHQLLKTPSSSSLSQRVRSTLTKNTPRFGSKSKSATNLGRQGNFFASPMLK

[13] = target: T7, Heat shock factor protein 1 (Mus musculus, UniProt P38532); assay: enhancement of HSF1-driven luciferase signal – cell-based, NIH3T3, luminescence, dose retest, confirmation (AID 435004); type: functional;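 also: stress induced by proteasome inhibitor MG132 added 30 min after compound; luciferase reporter driven by HSF1 response element in NIH3T3 cells; actives raise luminescence as potentiators of the MG132 stress response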
T7 sequence (P38532 whole entry): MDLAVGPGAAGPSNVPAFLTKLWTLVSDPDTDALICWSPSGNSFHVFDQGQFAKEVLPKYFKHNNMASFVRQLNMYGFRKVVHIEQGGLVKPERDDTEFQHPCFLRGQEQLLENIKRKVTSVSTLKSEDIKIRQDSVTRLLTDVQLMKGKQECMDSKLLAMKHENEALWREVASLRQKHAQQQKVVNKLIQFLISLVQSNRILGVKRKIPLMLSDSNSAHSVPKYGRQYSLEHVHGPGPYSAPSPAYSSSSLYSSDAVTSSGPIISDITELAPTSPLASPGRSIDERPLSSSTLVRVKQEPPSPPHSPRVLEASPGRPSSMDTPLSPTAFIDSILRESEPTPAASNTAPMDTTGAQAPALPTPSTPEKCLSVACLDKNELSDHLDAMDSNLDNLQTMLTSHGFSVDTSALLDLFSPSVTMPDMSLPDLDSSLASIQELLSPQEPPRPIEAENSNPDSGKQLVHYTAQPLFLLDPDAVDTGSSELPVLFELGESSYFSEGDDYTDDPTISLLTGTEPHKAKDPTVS

[14] = target: T8, Alkaline phosphatase, tissue-nonspecific isozyme (Homo sapiens, UniProt P05186); assay: activation of tissue-nonspecific alkaline phosphatase – biochemical, TNAP isozyme, mouse IAP uHTS hits, selectivity assay for mouse IAP activator project, dose response (AID 488880); type: functional
T8 sequence (P05186 whole entry): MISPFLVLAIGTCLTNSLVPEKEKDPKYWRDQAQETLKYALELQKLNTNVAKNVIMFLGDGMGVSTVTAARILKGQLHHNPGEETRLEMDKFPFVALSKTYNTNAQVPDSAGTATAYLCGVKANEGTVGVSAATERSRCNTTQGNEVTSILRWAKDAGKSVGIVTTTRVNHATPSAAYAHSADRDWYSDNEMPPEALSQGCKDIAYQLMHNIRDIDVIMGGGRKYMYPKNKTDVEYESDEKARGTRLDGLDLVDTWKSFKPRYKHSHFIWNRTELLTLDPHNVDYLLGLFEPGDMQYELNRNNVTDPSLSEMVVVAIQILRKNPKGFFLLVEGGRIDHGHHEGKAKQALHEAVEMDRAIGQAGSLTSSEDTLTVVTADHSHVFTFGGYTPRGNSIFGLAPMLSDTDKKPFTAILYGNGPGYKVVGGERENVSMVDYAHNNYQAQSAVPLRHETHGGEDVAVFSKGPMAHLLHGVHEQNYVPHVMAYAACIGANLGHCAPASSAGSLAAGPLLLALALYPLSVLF

[15] = target: T9, Zinc finger protein mex-5 (Caenorhabditis elegans, UniProt Q9XUB2); assay: potency of MEX-5 RNA-binding blockers – biochemical, C. elegans, fluorescence polarization, dose response (AID 1960)
T9 sequence (Q9XUB2 whole entry): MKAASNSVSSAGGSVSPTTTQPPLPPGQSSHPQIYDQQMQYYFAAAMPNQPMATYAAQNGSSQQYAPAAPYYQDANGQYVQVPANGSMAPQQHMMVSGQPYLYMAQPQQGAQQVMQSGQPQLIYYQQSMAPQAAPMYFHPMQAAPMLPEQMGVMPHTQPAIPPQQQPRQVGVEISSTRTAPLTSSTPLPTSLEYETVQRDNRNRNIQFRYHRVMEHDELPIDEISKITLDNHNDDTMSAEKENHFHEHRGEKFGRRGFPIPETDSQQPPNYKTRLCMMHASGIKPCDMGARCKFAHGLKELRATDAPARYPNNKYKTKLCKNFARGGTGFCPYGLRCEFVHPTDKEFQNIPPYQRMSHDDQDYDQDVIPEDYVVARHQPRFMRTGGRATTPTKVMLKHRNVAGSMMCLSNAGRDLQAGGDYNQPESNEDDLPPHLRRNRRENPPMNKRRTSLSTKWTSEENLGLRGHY

[16] = target: T10, RNA-binding protein pos-1 (Caenorhabditis elegans, UniProt G5EF15); assay: disruptors of C. elegans POS-1 RNA interaction – biochemical, fluorescence polarization, dose response (AID 1964);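 also: purified POS-1 fused to maltose binding protein made in E. coli; potency of compounds blocking POS-1 binding to fluorescent RNA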
T10 sequence (G5EF15 whole entry): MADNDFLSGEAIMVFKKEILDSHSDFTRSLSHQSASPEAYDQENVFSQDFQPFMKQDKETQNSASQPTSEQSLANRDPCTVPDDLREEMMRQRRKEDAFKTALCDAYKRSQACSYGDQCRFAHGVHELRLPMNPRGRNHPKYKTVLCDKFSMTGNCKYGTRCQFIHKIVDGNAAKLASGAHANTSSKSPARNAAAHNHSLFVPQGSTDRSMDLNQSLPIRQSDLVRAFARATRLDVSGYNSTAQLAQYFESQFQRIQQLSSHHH

[17] = target: Intestinal-type alkaline phosphatase (Mus musculus, UniProt P24822); assay: mouse intestinal alkaline phosphatase activators, dose response, biochemical, luminescence, uHTS hits (AID 488783); type: functional
Sequence of Intestinal-type alkaline phosphatase (Mus musculus, UniProt P24822) (P24822 whole entry): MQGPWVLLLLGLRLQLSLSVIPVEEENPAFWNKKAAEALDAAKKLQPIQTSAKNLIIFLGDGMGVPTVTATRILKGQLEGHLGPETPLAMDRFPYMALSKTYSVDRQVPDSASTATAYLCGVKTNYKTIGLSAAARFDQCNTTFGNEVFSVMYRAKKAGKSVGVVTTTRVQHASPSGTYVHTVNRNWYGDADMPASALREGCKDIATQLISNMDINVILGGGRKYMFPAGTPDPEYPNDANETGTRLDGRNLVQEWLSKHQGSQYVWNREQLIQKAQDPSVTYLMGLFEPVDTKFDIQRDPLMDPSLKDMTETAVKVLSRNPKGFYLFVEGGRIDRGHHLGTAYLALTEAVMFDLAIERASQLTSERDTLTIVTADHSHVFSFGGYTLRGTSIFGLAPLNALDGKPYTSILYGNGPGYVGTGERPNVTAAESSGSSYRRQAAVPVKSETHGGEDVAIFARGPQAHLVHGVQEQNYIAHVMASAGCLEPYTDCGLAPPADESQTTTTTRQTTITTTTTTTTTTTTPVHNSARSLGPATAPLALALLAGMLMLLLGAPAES

T1 sequence (P34972 whole entry): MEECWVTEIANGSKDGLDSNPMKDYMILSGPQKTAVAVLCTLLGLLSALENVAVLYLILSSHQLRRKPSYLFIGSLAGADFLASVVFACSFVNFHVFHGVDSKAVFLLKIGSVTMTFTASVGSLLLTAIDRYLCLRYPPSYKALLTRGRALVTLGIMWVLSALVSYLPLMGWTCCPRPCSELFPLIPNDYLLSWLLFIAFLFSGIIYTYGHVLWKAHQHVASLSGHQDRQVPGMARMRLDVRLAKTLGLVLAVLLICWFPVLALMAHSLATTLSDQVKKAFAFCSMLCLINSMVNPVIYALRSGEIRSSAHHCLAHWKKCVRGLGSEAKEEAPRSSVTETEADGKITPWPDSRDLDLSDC

For `COc1ccc(-c2c(-c3ccc(O)cc3O)n[nH]c2C(F)(F)F)cc1`, the EC50 (Cannabinoid receptor 2 [1]) was 30.2 µM (inactive), the IC50 [2] was > 32 µM (inactive) and the IC50 (Cannabinoid receptor 1 [3]) was 8.82 µM (active). For the same compound, the IC50 [4] was 1.06 µM (active), the EC50 [5] was > 32 µM (inactive) and the IC50 [6] was 1.8 µM (active). For the same compound, the EC50 (Cannabinoid receptor 1 [7]) was > 32 µM (inactive) and the IC50 (Cannabinoid receptor 2 [8]) was > 32 µM (inactive).
With `COc1ccc(-c2cc(N)n(S(=O)(=O)c3cccc([N+](=O)[O-])c3)n2)cc1OC` the IC50 [9] was > 20 µM (inactive), the IC50 (Tumor necrosis factor) was > 20 µM (inactive) and the IC50 (HEK293) was > 20 µM (inactive). The IC50 [10] was > 20 µM (inactive).
With `Cc1cc(O)nc(N/N=C/c2ccc(O)c(O)c2)n1` the EC50 [11] was 66.2 µM (active), the IC50 [12] was 21.4 µM (active) and the EC50 [13] was > 260 µM (inactive). The EC50 [14] was 56.1 µM (active), the EC50 [15] was 125 µM (active) and the EC50 [16] was 99.3 µM (active). For the same compound, the EC50 [17] was 58.7 µM (active).
